Assay: Pharmacokinetics of AE-PM components and their phase II metabolites in rat plasma after single oral administration (UHPLC-MS/MS, with and without sulfatase hydrolysis)
Details: for AUC(0-inf) / CL/F / Cmax / MRT inf / Tmax / Vd/F / half-life: rat, po; for CL/F: CLz/F; for MRT inf: MRT (0-∞); for Vd/F: Vz/F; for half-life: t1/2z; for Decrease of AUC (0-∞) compared with the normal group / Decrease of Cmax compared with the normal group: ANIT model rats; for Increase of AUC (0-∞) compared with the normal group / Increase of Cmax compared with the normal group: CCl4 model rats
[1] = plasma, 50 g/kg, ANIT group rats, oral AE-PM 50 g/kg, plasma, n = 6
[2] = plasma, 50 g/kg, CCl4 group rats, oral AE-PM 50 g/kg, plasma, n = 6
[3] = plasma, 50 g/kg, Normal group rats, oral AE-PM 50 g/kg, plasma, n = 6

Experimental: To explore the pharmacokinetic properties of PM following intragastric administration in rats, a rapid and sensitive method involving the use of UHPLC-MS/MS (Agilent 6460 series, Agilent Technologies, Santa Clara, CA, United States) was developed and validated for the simultaneous quantification of nine active components in rat plasma. The quantification was conducted in ESI negative ionization mode, and mass spectrometry conditions were set up as follows: capillary voltage of 3500 V; gas flow at 12 L/min; nebulizer of 40 psi; the gas temperature of 350°C; and delta EMV (−) of 400. A 10 µl extraction sample was injected into the column (Agilent SB-C18 column, 2.1 mm × 50 mm, 1.8 mm) and eluted at 0.4 ml/min with a gradient elution of water (with 0.1% v/v formic acid) (A) and acetonitrile (B) (0–1.5 min, 20–30% B; 1.5–3.5 min, 30–50% B; 3.five to four min, 50–55%B; 4–6.5 min, 55–85% B; 6.5–6.6 min, 85–20% B and re-equilibration for 3 min).
A 50 µl aliquot of blood plasma sample was placed in a centrifuge tube with 50 µl of puerarin (internal standard, IS) solution (1,000 ng/ml), followed by 150 µl methanol, which was mixed for 5 min. Then, the mixture was centrifuged for 10 min at 15,000 rpm (4°C), the supernatant was transferred to a clean centrifuge tube and dried with nitrogen gas at room temperature. The residue was resuspended in 100 µl of methanol, then centrifuged at 15,000 rpm (4°C, 10 min), and 10 µl of the supernatant was analyzed by UHPLC-MS/MS.
Additional plasma samples (50 µl) were enzymatically hydrolyzed with 50 µl of enzyme solution (65.86 mg of sulfatase, dissolved in 2 ml of sodium acetate buffer, pH 5.0) for phase II metabolite quantification, in accordance with our previous study ([Ding et al., 2012]; [Yi et al., 2018]). After being vortex mixed for 5 min, the mixture was incubated at 37°C for 30 min and returned to room temperature. Subsequently, the samples were processed as described above.
The remaining 21 rats of the three groups were treated with a single oral dose of AE-PM (50.4 g PM/kg). […] Blood was collected in heparinized tubes at 5, 15, 30, 45, 60, 120, 240, 360, 480, 720, 1,440, 2,880, and 4,320 min after administration. The blood samples were centrifuged at 5,000 rpm (4°C) for 7 min, and the supernatant plasma was harvested.
All data were presented as mean ± standard deviation (SD). A one-way analysis of variance (ANOVA) was used to compare the data between three groups. The differences were considered to be statistically significant when p < 0.05 and highly significant when the p-value was <0.01 or p < 0.001. Spearman rank correlation coefficient, calculated by bivariate correlation analysis was used to evaluate the correlation between AUC values and expression levels of metabolic enzyme and transporters. All statistical analyses were performed with the SPSS Statistics system (SPSS vision 21.0). Pharmacokinetic data analyses were performed using DAS 2.1.1 software (Mathematical Pharmacology Professional Committee of China, Shanghai, China).

Structure (SMILES) | AUC(0-inf) [1] [ng·h/mL] | AUC(0-inf) [2] [ng·h/mL] | AUC(0-inf) [3] [ng·h/mL] | CL/F [1] [mL/min/kg] | CL/F [2] [mL/min/kg] | CL/F [3] [mL/min/kg] | Cmax [1] [ng/mL] | Cmax [2] [ng/mL] | Cmax [3] [ng/mL] | MRT inf [1] [h] | MRT inf [2] [h] | MRT inf [3] [h] | Tmax [1] [h] | Tmax [2] [h] | Tmax [3] [h] | Vd/F [1] [L/kg] | Vd/F [2] [L/kg] | Vd/F [3] [L/kg] | half-life [1] [h] | half-life [3] [h] | also measured
O=C1c2cccc(O)c2C(=O)c2c(O)cc(CO)cc21 [Aloe-emodin, aloe-emodin] | 41700 | 6620 | 3560 | 7.98 | 50.4 | 93.6 | 1570 | 2600 | 1270 | 198 ± 3.17 | 6.47 ± 0.422 | 14 ± 1.42 | 0.25 ± 0.032 | 0.25 ± 0.052 | 0.167 ± 0.051 | 96.7 ± 8.35 | 15 ± 1.2 | 28.7 ± 1.55 | 140 ± 8.29 | 3.54 ± 0.185 | t1/2z (CCl4 group rats, oral AE-PM 50 g/kg, plasma, n = 6): 3.448 ± 0.177 h; Tmax (plasma, 50.4 g PM/kg, different groups (normal, ANIT, CCl4), oral AE-PM): < 0.5 h
Oc1cc(O)c2c(c1)O[C@H](c1ccc(O)c(O)c1)[C@@H](O)C2 [Catechin, catechin] | 11600 | 1500 | 12600 | 28.8 | 222 | 26.4 | 84.5 ± 8.85 | 453 ± 8.94 | 251 ± 11.8 | 253 ± 3.75 | 11.2 ± 1.23 | 146 ± 11.3 | 1 ± 0.742 | 0.5 ± 0.0408 | 0.25 ± 0.0234 | 442 ± 16.9 | 72.2 ± 12.6 | 237 ± 18.3 | 177.3 ± 1.09 | 104 ± 14.9 | half-life [2]: 3.76 ± 0.816 h; Conversion into phase II metabolites (rats, oral AE-PM, plasma): partially converted
Cc1cc(O[C@@H]2O[C@H](CO)[C@@H](O)[C@H](O)[C@H]2O)c2c(c1)C(=O)c1cc(O)cc(O)c1C2=O [E-glu, emodin-8-O-β-D-glucoside] | 1720 ± 170 | 14200 | 1880 ± 538 | 193 | 23.5 | 177 | 633 ± 50 | 5920 | 821 ± 85 | 2.81 ± 0.872 | 2.44 ± 1.17 | 3.88 ± 1.52 | 1 ± 0.248 | 1 ± 0.289 | 0.25 ± 0.0301 | 78.3 ± 4.4 | 8.13 ± 1.75 | 60.2 ± 9.45 | 4.68 ± 1.1 | 3.92 ± 0.219 | Decrease of AUC (0-∞) compared with the normal group (oral AE-PM): 8.25%; Decrease of Cmax compared with the normal group (oral AE-PM): 22.98%; Increase of AUC (0-∞) compared with the normal group (oral AE-PM): 655.90%; Increase of Cmax compared with the normal group (oral AE-PM): 620.15%; half-life [2]: 4 ± 1.4 h
COc1cc(O)c2c(c1)C(=O)c1cc(C)cc(O[C@@H]3O[C@H](CO)[C@@H](O)[C@H](O)[C@H]3O)c1C2=O [P-glu, physcion-8-O-β-D-glucoside] | 7050 | 1450 | 2270 | 47.3 | 230 | 147 | 223 ± 13.2 | 211 ± 3.04 | 148 ± 8.95 | 18.8 ± 3.36 | 7.48 ± 1.42 | 15.9 ± 2.36 | 1 ± 0.232 | 0.25 ± 0.0661 | 0.75 ± 0.049 | 13.2 ± 1.86 | 81.3 ± 5.01 | 143 ± 11.1 | 3.22 ± 0.473 | 11.3 ± 1.85 | half-life [2]: 4.08 ± 0.453 h
COc1cc(O)c2c(c1)C(=O)c1cc(C)cc(O)c1C2=O [Physcion, physcion] | 14000 | 36000 | 27800 | 23.9 | 9.27 | 12 | 1510 | 5840 | 2140 | 37.6 ± 2.27 | 10 ± 1.14 | 26.7 ± 1.52 | 0.75 ± 0.0238 | 1 ± 0.0675 | 0.5 ± 0.094 | 59.8 ± 3.41 | 7.05 ± 1.11 | 17.6 ± 2.41 | 28.9 ± 1.5 | 17 ± 1.87 | Decrease of AUC (0-∞) compared with the normal group (oral AE-PM): 49.77%; Decrease of Cmax compared with the normal group (oral AE-PM): 29.48%; Increase of AUC (0-∞) compared with the normal group (oral AE-PM): 29.24%; Increase of Cmax compared with the normal group (oral AE-PM): 173.72%; Levels of glucuronidation and sulfation conjugates in plasma (oral AE-PM, sulfatase hydrolysis): too low to allow pharmacokinetic analysis; half-life [2]: 8.78 ± 1.6 h

Reference: publication PMC8245786, “Comparative Studies on Multi-Component Pharmacokinetics of Polygonum multiflorum Thunb Extract After Oral Administration in Different Rat Models” (Frontiers in Pharmacology, 2021)
